pIC50: −log10 of the molar value. Like-named read-outs stand apart in the source and are kept apart here. One block for each compound: values may come before it.
Assays:
aldose reductase = molecular target: T1, aldose reductase (Rattus norvegicus, UniProt P07943); test: Inhibition of aldose reductase enzyme activity (Kador and Sharpless method, water soluble extracts of rat lenses); format: biochemical; settings: for pIC50: rat lens extract; for inhibition at 0.02 µM: 2.0 × 10^-8 M
T1 construct: water soluble extracts of rat lenses; from tissue; host or cells: rat lens (water-soluble extract)

[1] = tested on: polyol increase in the sciatic nerve of galactosemic rats; test: Reduction or inhibition of polyol (galactitol) increase in the sciatic nerve of galactosemic rats; format: in vivo, rat; settings: for ED50: once a day for eight days, 30% galactose diet, sciatic nerve galactitol
Description: The compounds according to the invention were tested for their ability to reduce or inhibit polyol increase in the sciatic nerve of galactosemic rats. Rats were fed 30% galactose diet and were administered the compounds at the various doses of 0.4-50 mg/kg once a day for eight days. One day after the final administration (on 9th day), sciatic nerves were removed for galactitol determination. […] The selected control compounds are typical one described in the aforesaid Japanese Unexamined Patent Application Gazette.

[2] = Table 2, 3.3 × 10^-8 M, read-out: Inhibition (%)
[3] = Table 2, 10^-7 M, read-out: Inhibition (%)
[4] = Table 2, 10^-8 M, read-out: Inhibition (%)
[5] = Table 1, 3.3 × 10^-8 M, read-out: Inhibition (%)
[6] = Table 1, 10^-7 M, read-out: Inhibition (%)
[7] = Rattus norvegicus, 192 h, Table 4, read-out: ED50
[8] = Rattus norvegicus, 192 h, Table 3, read-out: ED50
[9] = Table 1, 10^-5 M, read-out: Inhibition (%)

SMILES: O=C1NC(=O)C2(CC(CCl)Oc3ccc(F)cc32)N1 (racemic) [D, dl-2-Chloromethyl-6-fluoro-2,3-dihydro-spiro[4H-1-benzopyran-4,4'-imidazolidine]-2',5'-dione]
- inhibition at 0.33 µM (aldose reductase; Table 1, 3.3 × 10^-7 M): 78%
- inhibition at 0.033 µM (aldose reductase; [5]): 28%
- inhibition at 0.1 µM (aldose reductase; [6]): 53%
- pIC50 (aldose reductase; Table 1): 7.05
- ED50 [1, 7]: 1.3 mg/kg

SMILES: NC(=O)[C@H]1CC2(NC(=O)NC2=O)c2cc(F)ccc2O1 (stereo partly drawn) [B, d-6-Fluoro-2,3-dihydro-2',5'-dioxo-spiro[4H-1-benzopyran-4,4'-imidazolidine]-2-carboxamide]
- inhibition at 0.01 µM (aldose reductase): 39%
- inhibition at 0.033 µM (aldose reductase): 80%
- inhibition at 0.1 µM (aldose reductase): 93%
- ED50 [1, 8]: 1.3 mg/kg

SMILES: O=C1NC(=O)C2(CCOc3ccc(F)cc32)N1 (stereo not drawn) [S, 1-6-Fluoro-2,3-dihydro-spiro[4H-1-benzopyran-4,4'-imidazolidine]-2',5'-dione, reference compound]
- inhibition at 10 µM (aldose reductase; [9]): 32%

SMILES: O=C1NC(=O)C2(CC(CCl)Oc3ccc(F)cc32)N1 (stereo not drawn) [Compound E, d-2-Chloromethyl-6-fluoro-2,3-dihydro-spiro[4H-1-benzopyran-4,4'-imidazolidine]-2',5'-dione]
- inhibition at 0.033 µM (aldose reductase; [5]): 38%
- inhibition at 0.1 µM (aldose reductase; [6]): 66%
- inhibition at 0.01 µM (aldose reductase; Table 1, 10^-8 M, read-out: Inhibition (%)): 21%
- pIC50 (aldose reductase; Table 1): 7.33
- ED50 [1, 7]: 0.6 mg/kg

SMILES: O=C1NC(=O)C2(CC(C(=O)O)Oc3ccc(F)cc32)N1 (racemic) [Example 1, dl-6-fluoro-2,3-dihydro-2',5'-dioxo-spiro[4H-1-benzopyran-4,4'-imidazolidine]-2-carboxylic acid]
- potency of the major diastereomer vs minor diastereomer in inhibition of polyol increase ([1]; sciatic nerve of galactosemic rats): higher than that of the minor diastereomer

SMILES: O=C1NC(=O)C2(CC(CBr)Oc3ccc(F)cc32)N1 (racemic) [G, dl-2-Bromomethyl-6-fluoro-2,3-dihydro-spiro[4H-1-benzopyran-4,4'-imidazolidine]-2',5'-dione]
- inhibition at 0.33 µM (aldose reductase; Table 1, 3.3 × 10^-7 M): 70%
- inhibition at 0.033 µM (aldose reductase; [5]): 22%
- inhibition at 0.1 µM (aldose reductase; [6]): 42%
- pIC50 (aldose reductase; Table 1): 6.89
- ED50 [1, 7]: 7.2 mg/kg

SMILES: O=C1NC(=O)C2(CCOc3ccc(F)cc32)N1 (stereo not drawn) [R, d-6-Fluoro-2,3-dihydro-spiro[4H-1-benzopyran-4,4'-imidazolidine]-2',5'-dione, reference compound]
- Inhibition (%) (aldose reductase; Table 1, 3.3 × 10^-6): 88%
- Inhibition (%) (aldose reductase; Table 1, 3.3 × 10^-7 M): 61%
- Inhibition (%) (aldose reductase; Table 1, 3.3 × 10^-8 M): 15%
- Inhibition (%) (aldose reductase; Table 1, 10^-6 M): 80%
- Inhibition (%) (aldose reductase; Table 1, 10^-7 M): 34%
- inhibition at 0.33 µM (aldose reductase; Table 2, 3.3 × 10^-7 M): 59%
- inhibition at 0.033 µM (aldose reductase; [2]): 24%
- inhibition at 1 µM (aldose reductase; Table 2, 10^-6 M): 76%
- inhibition at 0.1 µM (aldose reductase; [3]): 29%
- ED50 ([1]; Table 3): 18.0 mg/kg

SMILES: O=C1NC(=O)C2(CCOc3ccc(F)cc32)N1 (stereo not drawn) [Q, d1-6-Fluoro-2,3-dihydro-spiro[4H-1-benzopyran-4,4'-imidazolidine]-2',5'-dione, reference compound]
- inhibition at 3.3 µM (aldose reductase; Table 1, 3.3 × 10^-6): 85%
- inhibition at 0.33 µM (aldose reductase; Table 1, 3.3 × 10^-7 M): 46%
- inhibition at 0.033 µM (aldose reductase; [5]): 10%
- inhibition at 1 µM (aldose reductase; Table 1, 10^-6 M): 71%
- inhibition at 0.1 µM (aldose reductase; [6]): 17%
- ED50 [1, 7]: 31.5 mg/kg
- ED50 ([1]; Table 3): 36.6 mg/kg

SMILES: NC(=O)C1CC2(NC(=O)NC2=O)c2cc(F)ccc2O1 (stereo not drawn) [C, 1-6-Fluoro-2,3-dihydro-2',5'-dioxo-spiro[4H-1-benzopyran-4,4'-imidazolidine]-2-carboxamide]
- inhibition at 10 µM (aldose reductase): 27%

SMILES: NC(=O)C1CC2(NC(=O)NC2=O)c2cc(F)ccc2O1 (racemic) [A, dl-6-Fluoro-2,3-dihydro-2',5'-dioxo-spiro[4H-1-benzopyran-4,4'-imidazolidine]-2-carboxamide]
- inhibition at 0.01 µM (aldose reductase): 21%
- inhibition at 0.033 µM (aldose reductase): 51%
- inhibition at 0.1 µM (aldose reductase): 80%
- ED50 [1, 8]: 3.3 mg/kg

The next lines start with results.

- inhibition at 0.033 µM (aldose reductase; [2]): 40%
- inhibition at 0.1 µM (aldose reductase; [3]): 74%
- inhibition at 0.01 µM (aldose reductase; [4]): 13%
- pIC50 (aldose reductase; Table 2): 7.36
SMILES: NC(=O)C1CC2(NC(=O)NC2=O)c2cc(F)cc(N)c2O1 (racemic) [M, dl-8-Amino-6-fluoro-2,3-dihydro-2',5'-dioxo-spiro[4H-1-benzopyran-4,4'-imidazolidine]-2-carboxamide]

- inhibition at 0.02 µM (aldose reductase; Table 2): 69%
- inhibition at 0.033 µM (aldose reductase; [2]): 82%
- inhibition at 0.01 µM (aldose reductase; [4]): 35%
- pIC50 (aldose reductase; Table 2): 7.85
SMILES: NC(=O)[C@H]1CC2(NC(=O)NC2=O)c2cc(F)cc([N+](=O)[O-])c2O1 (stereo partly drawn) [J, d-6-Fluoro-2,3-dihydro-8-nitro-2',5'-dioxo-spiro[4H-1-benzopyran-4,4'-imidazolidine]-2-carboxamide]

- inhibition at 0.02 µM (aldose reductase; Table 2): 56%
- inhibition at 0.033 µM (aldose reductase; [2]): 69%
- inhibition at 0.01 µM (aldose reductase; [4]): 30%
- pIC50 (aldose reductase; Table 2): 7.74
SMILES: CC(=O)Nc1cc(F)cc2c1O[C@@H](C(N)=O)CC21NC(=O)NC1=O (stereo partly drawn) [P, d-8-Acetamido-6-fluoro-2,3-dihydro-2',5'-dioxo-spiro[4H-1-benzopyran-4,4'-imidazolidine]-2-carboxamide]

- inhibition at 0.33 µM (aldose reductase; Table 2, 3.3 × 10^-7 M): 81%
- inhibition at 0.033 µM (aldose reductase; [2]): 30%
- inhibition at 0.1 µM (aldose reductase; [3]): 59%
- pIC50 (aldose reductase; Table 2): 7.12
SMILES: O=C1NC(=O)C2(CC(CCl)Oc3c([N+](=O)[O-])cc(F)cc32)N1 (racemic) [N, dl-2-Chloromethyl-6-fluoro-2,3-dihydro-8-nitro-spiro[4H-1-benzopyran-4,4'-imidazolidine]-2',5'-dione]

- inhibition at 0.33 µM (aldose reductase; Table 2, 3.3 × 10^-7 M): 68%
- inhibition at 1 µM (aldose reductase; Table 2, 10^-6 M): 85%
- inhibition at 0.1 µM (aldose reductase; [3]): 38%
- pIC50 (aldose reductase; Table 2): 6.77
SMILES: Nc1cc(F)cc2c1OC(CCl)CC21NC(=O)NC1=O (racemic) [O, dl-8-Amino-2-chloromethyl-6-fluoro-2,3-dihydro-spiro[4H-1-benzopyran-4,4'-imidazolidine]-2',5'-dione]

- inhibition at 0.033 µM (aldose reductase; [2]): 50%
- inhibition at 0.1 µM (aldose reductase; [3]): 88%
- inhibition at 0.01 µM (aldose reductase; [4]): 15%
- pIC50 (aldose reductase; Table 2): 7.51
SMILES: NC(=O)C1CC2(NC(=O)NC2=O)c2cc(F)cc([N+](=O)[O-])c2O1 (racemic) [L, dl-6-Fluoro-2,3-dihydro-8-nitro-2',5'-dioxo-spiro[4H-1-benzopyran-4,4'-imidazolidine]-2-carboxamide]

- inhibition at 0.033 µM (aldose reductase; [2]): 60%
- inhibition at 0.1 µM (aldose reductase; [3]): 70%
- inhibition at 0.01 µM (aldose reductase; [4]): 27%
- pIC50 (aldose reductase; Table 2): 7.60
SMILES: NC(=O)[C@H]1CC2(NC(=O)NC2=O)c2cc(F)cc(N)c2O1 (stereo partly drawn) [K, d-8-Amino-6-fluoro-2,3-dihydro-2',5'-dioxo-spiro[4H-1-benzopyran-4,4'-imidazolidine]-2-carboxamide]

- inhibition at 0.33 µM (aldose reductase; Table 1, 3.3 × 10^-7 M): 82%
- inhibition at 0.033 µM (aldose reductase; [5]): 35%
- inhibition at 0.1 µM (aldose reductase; [6]): 59%
- pIC50 (aldose reductase; Table 1): 7.17
SMILES: O=C1NC(=O)C2(CC(CBr)Oc3ccc(F)cc32)N1 (stereo not drawn) [H, d-2-Bromomethyl-6-fluoro-2,3-dihydro-spiro[4H-1-benzopyran-4,4'-imidazolidine]-2',5'-dione]
- ED50 [1, 7]: 2.2 mg/kg

- inhibition at 3.3 µM (aldose reductase; Table 1, 3.3 × 10^-6): 54%
- inhibition at 10 µM (aldose reductase; [9]): 75%
- inhibition at 1 µM (aldose reductase; Table 1, 10^-6 M): 31%
- pIC50 (aldose reductase; Table 1): 5.57
SMILES: O=C1NC(=O)C2(CC(CBr)Oc3ccc(F)cc32)N1 (stereo not drawn) [I, 1-2-Bromomethyl-6-fluoro-2,3-dihydro-spiro[4H-1-benzopyran-4,4'-imidazolidine]-2',5'-dione]

- inhibition at 3.3 µM (aldose reductase; Table 1, 3.3 × 10^-6): 52%
- inhibition at 10 µM (aldose reductase; [9]): 74%
- inhibition at 1 µM (aldose reductase; Table 1, 10^-6 M): 28%
- pIC50 (aldose reductase; Table 1): 5.54
SMILES: O=C1NC(=O)C2(CC(CCl)Oc3ccc(F)cc32)N1 (stereo not drawn) [F, 1-2-Chloromethyl-6-fluoro-2,3-dihydro-spiro[4H-1-benzopyran-4,4'-imidazolidine]-2',5'-dione]

Source: patent US5001240A, “Process for preparing optically active hydantoins” (Sanwa Kagaku Kenkyyusho Co., Ltd., priority 1986, dated 1991)
